Experimental data reported in article PMC6440464 (PeerJ, 2019).
Where two headings read alike, the source gives them in different places.

Experiment: Pharmacokinetics study after separate oral administration in rats (HPLC-MS of plasma)
Assay type: in vivo, Sprague-Dawley rats
Details: for AUC(0-t) / MRT last / Tmax / CL/F / Cmax / half-life: po; for Tmax: read-out: Tmax (converted); for CL/F: read-out: CLz/F; for Cmax: read-out: Cmax; for half-life: read-out: t1/2z
Procedure: A total of 15 SPF Sprague-Dawley rats (SD, male, 190–210 g) were provided by Sino-British Sippr/BK Lab Animal Company Ltd. (Shanghai, China). The rats were kept in standard conditions (22–26 °C; 40–60% relative humidity; 12 h light/dark cycle). Throughout the rearing period, the animals had access to food and water ad libitum. Animal experiments were conducted in accordance with the standard ethical guidelines of the Laboratory Animal Management Committee of Jiangsu Province (SYXK (SU) 2016-0011).
Following 1 week of adaptation, the rats were fasted for about 12 h before dosing, with free access to water. […] After administration of the first dose, blood samples were taken from the retro-orbital vein at 0, 5, 15, 30, 60, 90, 120, 180, 240, 360, 480, and 1,440 min and collected in heparinized tubes. The samples were centrifuged at 3,500 rpm for 10 min at 4 °C and the plasma was stored at −80 °C until analysis.
An Agilent 1,200 series HPLC system (Agilent Technologies, Waldbronn, Germany) equipped with a quaternary pump on-line degasser, auto-sampler and column oven, and an SL G1946D quadruple mass spectrometer (Agilent Technologies, Santa Clara, CA, USA) equipped with an electrospray ionization (ESI) source, were used for separation and detection. Data were acquired and analyzed using Agilent ChemStation Software Version A.01.00 (Agilent Technologies, Santa Clara, CA, USA).
The separation was carried out with an Amethyst C18-H column (150 × 4.6 mm, 5 μm, Sepax Technologies, Newark, DE, USA) with a guard column SB-C18 (10 × 4.6 mm, 5 μm, Phenomenex Technologies, Torrance, USA) at a constant temperature of 25 °C.
The mass spectra were acquired using ESI interfaced to a single quadrupole mass spectrometer. The ionization conditions were as follows: drying gas (N2) flow rate of 11 L/min, drying gas temperature of 350 °C, nebulizing gas (N2) pressure of 35 psi, capillary voltage of 3,500 V, quad temperature of 100 °C, and fragment voltage of 110 V. A series of m/z were monitored using a timed program according to the retention times and characteristic ions for the corresponding HPLC-MS peak obtained by scanning from m/z 100–1,000 in the standard sample.
Briefly, an aliquot of plasma sample (100 μL) was spiked with 5% formic acid (10 μL) in centrifuge tube. Subsequently, hydrochloric acid (2 mol/L, 10 μL) and IS solution (960.00 ng/mL, 20 μL) were added. Then ethyl acetate/n-butyl alcohol (1:1 v/v; 1,000 μL) was used to extract the components. The samples were then homogenized by vortex mixing and centrifuged for 10 min at 14,000 rpm. After centrifugation, 800 μL of supernatant was transferred to another centrifuge tube and the sample was evaporated to dryness. The residues were dissolved in 100 μL of methanol and centrifuged for 10 min at 12,000 rpm. 50 μL of the supernatant was transferred to the vial and an aliquot of 5 μL was injected into the HPLC-MS system for analysis.
DAS 2.0 (Chinese Pharmacological Association, Shanghai, China) was used to calculate the pharmacokinetic parameters using the non-compartment model, including the area under curve (AUC), mean residence time (MRT), half-life ( t1/2z), clearance rate (CL), maximum plasma concentration (Cmax), and time (Tmax). All results are expressed as mean ± standard deviation (SD). One way analysis of variance followed by […] was used for comparison of different groups using Graph pad prism 5 software. A p-value of <0.05 was considered statistically significant.

[1] = male, Sprague-Dawley, rat, plasma, 50 mg/kg, IQ group (oral IQ 50 mg/kg), rat plasma, labelled substance = analyte, mean of 5 rats
[2] = male, Sprague-Dawley, rat, plasma, 50 mg/kg, IQ group: oral IQ 50 mg/kg, rat plasma, mean ± SD, n = 5
[3] = male, Sprague-Dawley, rat, plasma, 50 mg/kg, QG group (oral QG 50 mg/kg), rat plasma, labelled substance = analyte, mean of 5 rats
[4] = male, Sprague-Dawley, rat, plasma, 50 mg/kg, QG group: oral QG 50 mg/kg, rat plasma, mean ± SD, n = 5
[5] = male, Sprague-Dawley, rat, plasma, 50 mg/kg, Qr group (oral Qr 50 mg/kg), rat plasma, labelled substance = analyte, mean of 5 rats
[6] = male, Sprague-Dawley, rat, plasma, 50 mg/kg, Qr group: oral Qr 50 mg/kg, rat plasma, mean ± SD, n = 5

For O=C(O)[C@H]1O[C@@H](Oc2c(-c3ccc(O)c(O)c3)oc3cc(O)cc(O)c3c2=O)[C@H](O)[C@@H](O)[C@@H]1O [QG, Quercetin-3-O-β-D-glucuronide], which “AUC0−t” value (Qr group: oral Qr 50 mg/kg, rat plasma, mean ± SD, n = 5) is on record?
Its value is 1,150.0 ± 454.2 mg/L*min.

What about the “Shape of mean plasma concentration-time profile” value (after oral administration of QG 50 mg/kg) of the same compound?
The value was “clear double peak phenomenon”.

And the concentration at 120 min (male, Sprague-Dawley, rat, plasma, oral, 50 mg/kg, IQ group (oral IQ 50 mg/kg), 120 min, individual rats NO. 1-5, read-out: Plasma concentrations)?
The concentration at 120 min was 872 ng/mL.

And the AUC(0-t) (male, Sprague-Dawley, rat, plasma, 50 mg/kg, IQ group (oral IQ 50 mg/kg), rat plasma, labelled substance = analyte, individual rats No1-No5, read-out: AUC(0-t) (converted))?
The AUC(0-t) was 8820 ng·h/mL.

And the MRT last (male, Sprague-Dawley, rat, plasma, 50 mg/kg, IQ group (oral IQ 50 mg/kg), rat plasma, labelled substance = analyte, individual rats No1-No5, read-out: MRT(0-t) (converted))?
Its MRT last is 4.63 h.

And the Tmax (male, Sprague-Dawley, rat, plasma, 50 mg/kg, IQ group (oral IQ 50 mg/kg), rat plasma, labelled substance = analyte, individual rats No1-No5)?
The Tmax was 0.5 h.

And the AUC(0-t) (male, Sprague-Dawley, rat, plasma, 50 mg/kg, IQ group (oral IQ 50 mg/kg), rat plasma, labelled substance = analyte, mean of 5 rats, read-out: AUC(0-t) (converted))?
The AUC(0-t) was 11200 ng·h/mL.

What about the CL/F [1] of the same compound?
The CL/F was 70 mL/min/kg.

What about the Cmax [1] of the same compound?
Its Cmax is 3900 ng/mL.

What about the MRT last (male, Sprague-Dawley, rat, plasma, 50 mg/kg, IQ group (oral IQ 50 mg/kg), rat plasma, labelled substance = analyte, mean of 5 rats, read-out: MRT(0-t) (converted)) of the same compound?
The MRT last was 5.93 h.

And the Tmax [1]?
The Tmax was 0.5 h.

And the half-life [1]?
Its half-life is 8.73 h.

And the AUC(0-t) (male, Sprague-Dawley, rat, plasma, 50 mg/kg, IQ group: oral IQ 50 mg/kg, rat plasma, mean ± SD, n = 5, read-out: AUC0−t (converted))?
The AUC(0-t) was 11200 ng·h/mL.

What about the Cmax [2] of the same compound?
The Cmax was 3910 ± 1340 ng/mL.

What about the MRT last (male, Sprague-Dawley, rat, plasma, 50 mg/kg, IQ group: oral IQ 50 mg/kg, rat plasma, mean ± SD, n = 5, read-out: MRT0−t (converted)) of the same compound?
Its MRT last is 5.93 h.

And the Tmax [2]?
The Tmax was 0.5 h.

What about the half-life [2] of the same compound?
The half-life was 8.72 ± 3.17 h.

And the MRT last (male, Sprague-Dawley, rat, plasma, 50 mg/kg, QG group (oral QG 50 mg/kg), rat plasma, labelled substance = analyte, individual rats No1-No5, read-out: MRT(0-t) (converted))?
Its MRT last is 6.52 h.

What about the half-life (male, Sprague-Dawley, rat, plasma, 50 mg/kg, QG group (oral QG 50 mg/kg), rat plasma, labelled substance = analyte, individual rats No1-No5) of the same compound?
The half-life was 4.98 h.

And the AUC(0-t) (male, Sprague-Dawley, rat, plasma, 50 mg/kg, QG group (oral QG 50 mg/kg), rat plasma, labelled substance = analyte, mean of 5 rats, read-out: AUC(0-t) (converted))?
The AUC(0-t) was 16000 ng·h/mL.

And the CL/F [3]?
Its CL/F is 71 mL/min/kg.

And the Cmax [3]?
The Cmax was 2040 ng/mL.

And the MRT last (male, Sprague-Dawley, rat, plasma, 50 mg/kg, QG group (oral QG 50 mg/kg), rat plasma, labelled substance = analyte, mean of 5 rats, read-out: MRT(0-t) (converted))?
Its MRT last is 7.3 h.

And the Tmax [3]?
Its Tmax is 3.7 h.

And the half-life [3]?
Its half-life is 6.27 h.

What about the AUC(0-t) (male, Sprague-Dawley, rat, plasma, 50 mg/kg, QG group: oral QG 50 mg/kg, rat plasma, mean ± SD, n = 5, read-out: AUC0−t (converted)) of the same compound?
The AUC(0-t) was 16000 ng·h/mL.

What about the Cmax [4] of the same compound?
Its Cmax is 2040 ± 850 ng/mL.

What about the MRT last (male, Sprague-Dawley, rat, plasma, 50 mg/kg, QG group: oral QG 50 mg/kg, rat plasma, mean ± SD, n = 5, read-out: MRT0−t (converted)) of the same compound?
Its MRT last is 7.3 h.

And the Tmax [4]?
The Tmax was 3.7 h.

What about the half-life [4] of the same compound?
The half-life was 6.27 ± 1.59 h.

What about the Tmax (male, Sprague-Dawley, rat, plasma, 50 mg/kg, Qr group (oral Qr 50 mg/kg), rat plasma, labelled substance = analyte, individual rats No1-No5) of the same compound?
Its Tmax is 0.5 h.

And the AUC(0-t) (male, Sprague-Dawley, rat, plasma, 50 mg/kg, Qr group (oral Qr 50 mg/kg), rat plasma, labelled substance = analyte, mean of 5 rats, read-out: AUC(0-t) (converted))?
Its AUC(0-t) is 19200 ng·h/mL.

And the CL/F [5]?
Its CL/F is 43 mL/min/kg.

And the Cmax [5]?
Its Cmax is 6460 ng/mL.

And the MRT last (male, Sprague-Dawley, rat, plasma, 50 mg/kg, Qr group (oral Qr 50 mg/kg), rat plasma, labelled substance = analyte, mean of 5 rats, read-out: MRT(0-t) (converted))?
Its MRT last is 5.27 h.

What about the Tmax [5] of the same compound?
The Tmax was 0.7 h.

What about the half-life [5] of the same compound?
The half-life was 9.1 h.

What about the AUC(0-t) (male, Sprague-Dawley, rat, plasma, 50 mg/kg, Qr group: oral Qr 50 mg/kg, rat plasma, mean ± SD, n = 5, read-out: AUC0−t (converted)) of the same compound?
Its AUC(0-t) is 25800 ng·h/mL.

What about the Cmax [6] of the same compound?
Its Cmax is 6460 ± 2940 ng/mL.

What about the MRT last (male, Sprague-Dawley, rat, plasma, 50 mg/kg, Qr group: oral Qr 50 mg/kg, rat plasma, mean ± SD, n = 5, read-out: MRT0−t (converted)) of the same compound?
The MRT last was 5.26 h.

What about the Tmax [6] of the same compound?
Its Tmax is 0.7 h.

And the half-life [6]?
Its half-life is 9.1 ± 7.28 h.
